Experimental data reported in ChEMBL document CHEMBL1130630, “Structure-based design of peptidomimetic ligands of the Grb2-SH2 domain” (Bioorg Med Chem Lett, 1998).
pIC50: −log10 of the molar value. Square brackets hold non-standard residues; d marks the D form. Peptide text beside a SMILES is read from it. pY = N[C@@H](Cc1ccc(OP(=O)(O)O)cc1)C(=O)O

Molecular target: Growth factor receptor-bound protein 2 (Homo sapiens, UniProt P62993)
Experiment: Inhibition of Growth factor receptor bound protein 2 SH2 domain binding to phospho-EGFR by ELISA

Growth factor receptor-bound protein 2, sequence (P62993 whole entry, the tested form may be a part): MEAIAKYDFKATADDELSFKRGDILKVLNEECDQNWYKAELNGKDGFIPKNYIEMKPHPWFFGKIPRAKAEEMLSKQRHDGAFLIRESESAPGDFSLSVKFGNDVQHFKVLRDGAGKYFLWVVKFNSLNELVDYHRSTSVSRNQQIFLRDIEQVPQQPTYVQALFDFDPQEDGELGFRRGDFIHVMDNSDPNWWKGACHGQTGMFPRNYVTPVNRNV

Compound: CC(=O)N[C@@H](Cc1ccc(OP(=O)(O)O)cc1)C(=O)N[C@@H](CCC(N)=O)c1cccc(NC(N)=O)c1
- pIC50: 5.19

Compound: CC(=O)N[C@@H](Cc1ccc(OP(=O)(O)O)cc1)C(=O)NCc1cccc(NC(N)=O)c1
- pIC50: 4.31

Compound: CC(=O)N[C@@H](Cc1ccc(OP(=O)(O)O)cc1)C(=O)NCC(=O)N[C@@H](CC(N)=O)C(N)=O (Ac-[pY]-Gly-Asn-NH2)
- pIC50: 4.17

Compound: CC(=O)N[C@@H](Cc1ccc(OP(=O)(O)O)cc1)C(=O)N[C@@H](CCC(N)=O)C(=O)N[C@@H](CC(N)=O)C(N)=O (Ac-[pY]-Gln-Asn-NH2)
- pIC50: 5.26

Compound: CC(=O)N[C@@H](Cc1ccc(OP(=O)(O)O)cc1)C(=O)N[C@H](C(=O)N[C@@H](CC(N)=O)C(N)=O)C(C)C (Ac-[pY]-Val-Asn-NH2)
- pIC50: 5.36

Compound: CC(=O)N[C@@H](Cc1ccc(OP(=O)(O)O)cc1)C(=O)N[C@H](c1cccc(NC(N)=O)c1)C(C)C
- pIC50: 5.21
